Measured values published in ChEMBL document CHEMBL1201862, “PubChem BioAssay data set” (2004).
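Compound exposure: 48 hours, 5 concentrations, 96-well plates. Abbreviation: GI50, concentration required for 50% inhibition of growth.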 Calls of active or inactive are those of the source. Rule as the data show it: active = GI50 up to about 1.1 µM and inactive = higher.

Assays:
Assay in all cases: growth of human tumour cells (NCI), 48 h
SF-268 = tested on: SF-268
SK-MEL-5 = tested on: SK-MEL-5
SF-295 = tested on: SF-295
K562 = tested on: K562
MDA-MB-435 = tested on: MDA-MB-435
SK-MEL-2 = tested on: SK-MEL-2
EKVX = tested on: EKVX
NCI-H23 = tested on: NCI-H23
ACHN = tested on: ACHN
DU-145 = tested on: DU-145
HCT-116 = tested on: HCT-116
HOP-62 = tested on: HOP-62
UACC-62 = tested on: UACC-62
NCI-H460 = tested on: NCI-H460
HOP-92 = tested on: HOP-92
A549 = tested on: A549
NCI-H226 = tested on: NCI-H226
TK-10 = tested on: TK-10
PC-3 = tested on: PC-3
SW-620 = tested on: SW-620
BT-549 = tested on: BT-549
UACC-257 = tested on: UACC-257
HT-29 = tested on: HT-29
SNB-75 = tested on: SNB-75
HL-60 = tested on: HL-60
CCRF-CEM = tested on: CCRF-CEM
M14 = tested on: M14
LOX IMVI = tested on: LOX IMVI
SF-539 = tested on: SF-539
SK-OV-3 = tested on: SK-OV-3
CAKI-1 = tested on: CAKI-1
NCI/ADR-RES = tested on: NCI/ADR-RES
OVCAR-8 = tested on: OVCAR-8
NCI-H522 = tested on: NCI-H522
SNB-19 = tested on: SNB-19
IGROV-1 = tested on: IGROV-1
OVCAR-3 = tested on: OVCAR-3
U-251 = tested on: U-251
OVCAR-5 = tested on: OVCAR-5
RXF 393 = tested on: RXF 393
HCT-15 = tested on: HCT-15
786-0 = tested on: 786-0
HCC 2998 = tested on: HCC 2998
SR = tested on: SR
SK-MEL-28 = tested on: SK-MEL-28
OVCAR-4 = tested on: OVCAR-4
UO-31 = tested on: UO-31
Malme-3M = tested on: Malme-3M
SN12C = tested on: SN12C
Hs-578T = tested on: Hs-578T
COLO 205 = tested on: COLO 205
MDA-N = tested on: MDA-N
MCF7 = tested on: MCF7
MDA-MB-231 = tested on: MDA-MB-231
A498 = tested on: A498

Q: What does the source list for O=C1NNC2NC(=O)C3(NN2C1=O)c1ccccc1-c1ccccc13 (stereo not given)?
A: GI50 (SF-268): > 100 µM (inactive); GI50 (SK-MEL-5): > 100 µM (inactive); GI50 (SF-295): > 100 µM (inactive); GI50 (K562): > 100 µM (inactive); GI50 (MDA-MB-435): > 100 µM (inactive); GI50 (SK-MEL-2): > 100 µM (inactive); GI50 (EKVX): > 100 µM (inactive); GI50 (NCI-H23): > 100 µM (inactive); GI50 (ACHN): > 100 µM (inactive); GI50 (DU-145): > 100 µM (inactive); GI50 (HCT-116): > 100 µM (inactive); GI50 (HOP-62): > 100 µM (inactive); GI50 (UACC-62): > 100 µM (inactive); GI50 (NCI-H460): > 100 µM (inactive); GI50 (HOP-92): > 100 µM (inactive); GI50 (A549): > 100 µM (inactive); GI50 (NCI-H226): > 100 µM (inactive); GI50 (TK-10): > 100 µM (inactive); GI50 (PC-3): > 100 µM (inactive); GI50 (SW-620): > 100 µM (inactive); GI50 (BT-549): > 100 µM (inactive); GI50 (UACC-257): > 100 µM (inactive); GI50 (HT-29): > 100 µM (inactive); GI50 (SNB-75): > 100 µM (inactive); GI50 (HL-60): > 100 µM (inactive); GI50 (CCRF-CEM): > 100 µM (inactive); GI50 (M14): > 100 µM (inactive); GI50 (LOX IMVI): > 100 µM (inactive); GI50 (SF-539): > 100 µM (inactive); GI50 (SK-OV-3): > 100 µM (inactive); GI50 (CAKI-1): > 100 µM (inactive); GI50 (NCI/ADR-RES): > 100 µM (inactive); GI50 (OVCAR-8): > 100 µM (inactive); GI50 (NCI-H522): > 100 µM (inactive); GI50 (SNB-19): > 100 µM (inactive); GI50 (IGROV-1): > 100 µM (inactive); GI50 (OVCAR-3): > 100 µM (inactive); GI50 (U-251): > 100 µM (inactive); GI50 (OVCAR-5): > 100 µM (inactive); GI50 (RXF 393): > 100 µM (inactive); GI50 (HCT-15): > 100 µM; GI50 (786-0): > 100 µM (inactive); GI50 (HCC 2998): > 100 µM (inactive); GI50 (SR): > 100 µM (inactive); GI50 (SK-MEL-28): > 10 µM (inactive); GI50 (OVCAR-4): > 100 µM (inactive); GI50 (UO-31): > 100 µM (inactive); GI50 (Malme-3M): > 100 µM (inactive); GI50 (SN12C): > 100 µM (inactive); GI50 (Hs-578T): > 100 µM (inactive); GI50 (COLO 205): > 100 µM (inactive); GI50 (MDA-N): > 100 µM (inactive); GI50 (MCF7): > 100 µM (inactive); GI50 (MDA-MB-231): > 100 µM (inactive); GI50 (A498): > 100 µM (inactive)
